In patent US20260274853A1, “BIFUNCTIONAL COMPOUNDS CONTAINING PYRIMIDINE DERIVATIVES FOR DEGRADING CYCLIN-DEPENDENT KINASE 2 VIA UBIQUITIN PROTEASOME PATHWAY” (NIKANG THERAPEUTICS, INC., priority 2022, published 2026):

Target: T1, CDK2 (Homo sapiens, UniProt P24941)
T1 construct: High-Throughput Measurement of Cellular Endogenous CDK2; endogenous in cells; host or cells: OVCAR3
Experiment: Inhibition of CDK2: phospho-Rb (S807/811) HTRF measurement in OVCAR3 cells
Type: cell-based
Conditions: 24 h compound treatment, read-out: pRb (nM), IC50 in pRB(S807/811) assay
Protocol: Phosphorylation of RB protein at S807/811 were measured using HTRF phospho-RB cellular kits (Cat #64RBS807PEG) from Cisbio.
On Day 1, OVCAR3 (dependent on CDK2) cells were seeded into 96-well tissue-culture treated plates at 20,000 cells/well in 200 μL and incubated overnight at 37° C. in CO2 atmosphere. On Day 2, the cells were treated with test compounds at concentrations from 0.3 to 10,000 nM using HP D300 digital dispenser. Twenty-four hours after compound treatment, cell culture media was removed by flicking the plate and tapping the plate against clean paper towel. Immediately 30 μL 1× lysis buffer was supplemented from the kit and the plate was incubated at room temperature on shaker for 30 min. After homogenization by pipetting up and down, 8 μL cell lysate from 96-well cell culture plate was transferred to 384-well small volume white detection plate. 2 μL premixed detection solution was added and the plate was covered with sealer. To prepare the detection solution, d2 conjugated-phospho-RB antibody and Eu-cryptate conjugated phosphor-RB antibody were diluted into detection buffer following manufacturer's instruction. Detection plates were incubated for 4 h at room temperature and read on ClarioStar (BMG Labtech) in TR-FRET mode (665 nM and 620 nM). The TR-FRET ratio (665 nM/620 nM) was plotted against the compound concentration and normalized to DMSO controls. Half maximal inhibition concentration (IC50) values are calculated with a four-parameter logistic fit using GraphPad Prism (version 8; La Jolla, CA).
In the table below, A indicates a IC50 of less than 0.1 μM; B indicates a IC50 of greater than or equal to 0.1 μM but less than 0.5 μM; C indicates a IC50 of greater than or equal to 0.5 μM but less than 1 μM; and D indicates a […] of greater than or equal to 1 μM but less than 10 μM.

| SMILES | IC50 |
| --- | --- |
| Cn1nc(N2CCC(=O)NC2=O)c2ccc(C3CCN(Cc4cc(S(=O)(=O)N5CCC(Nc6ncc(C(F)(F)F)c(-c7cnn(CC(F)(F)F)c7)n6)CC5)ccc4C(F)(F)F)CC3(F)F)cc21 (centres unmarked) [Example 55] | 1000 to 10000 nM |
| Cn1nc(N2CCC(=O)NC2=O)c2ccc(C3CCN(Cc4cccc(S(=O)(=O)N5CC[C@@H](Nc6ncc(C(F)(F)F)c(-c7cnn(CC(F)(F)F)c7)n6)[C@@H](F)C5)c4)CC3(F)F)cc21 (stereo partly drawn) [Example 66, 1-(6-(3,3-difluoro-1-(3-(((3S,4R)-3-fluoro-4-((4-(1-(2,2,2-trifluoroethyl)-1H-pyrazol-4-yl)-5-(trifluoromethyl)-pyrimidin-2-yl)amino)piperidin-1-yl)-sulfonyl)benzyl)piperidin-4-yl)-1-methyl-1H-indazol-3-yl)dihydro-pyrimidine-2,4(1H,3H)-dione] | 1000 to 10000 nM |
| Cn1nc(N2CCC(=O)NC2=O)c2ccc(C3CCN(Cc4cccc(S(=O)(=O)N5CCC(Nc6ncc(C(F)(F)F)c(-c7cnn(CC(F)(F)F)c7)n6)CC5)c4C(F)(F)F)CC3)cc21 [Example 87, 1-(1-methyl-6-(1-(3-((4-((4-(1-(2,2,2-trifluoroethyl)-1H-pyrazol-4-yl)-5-(trifluoromethyl)pyrimidin-2-yl)-amino)-piperidin-1-yl)sulfonyl)-2-(trifluoro-methyl)benzyl)piperidin-4-yl)-1H-indazol-3-yl)dihydro-pyrimidine-2,4(1H,3H)-dione] | 500 to 1000 nM |
| Cn1nc(N2CCC(=O)NC2=O)c2ccc(C3CCN(C(c4cccc(S(=O)(=O)N5CCC(Nc6ncc(C(F)(F)F)c(-c7cnn(CC(F)(F)F)c7)n6)CC5)c4)C(F)(F)F)CC3)cc21 (centres unmarked) [Example 91, 1-(1-methyl-6-(1-(2,2,2-trifluoro-1-(3-((4-((4-(1-(2,2,2-trifluoroethyl)-1H-pyrazol-4-yl)-5-(trifluoromethyl)-pyrimidin-2-yl)amino)piperidin-1-yl)-sulfonyl)phenyl)ethyl)piperidin-4-yl)-1H-indazol-3-yl)dihydro-pyrimidine-2,4(1H,3H)-dione] | 100 to 500 nM |
| Cn1nc(N2CCC(=O)NC2=O)c2ccc(C3CCN(CC4CCN(S(=O)(=O)[C@H]5CC[C@H](Nc6ncc(C(F)(F)F)c(-c7cnn(CC(F)(F)F)c7)n6)CC5)CC4)CC3)cc21 [Example 94, 1-(1-methyl-6-(1-((1-(((1r,4r)-4-((4-(1-(2,2,2-trifluoroethyl)-1H-pyrazol-4-yl)-5-(trifluoromethyl)pyrimidin-2-yl)-amino)cyclohexyl)sulfonyl)piperidin-4-yl)methyl)piperidin-4-yl)-1H-indazol-3-yl)dihydropyrimidine-2,4(1H,3H)-dione] | 100 to 500 nM |
| Cn1nc(N2CCC(=O)NC2=O)c2ccc(C3CCN(CCc4cccc(S(=O)(=O)[C@H]5CC[C@H](Nc6ncc(C(F)(F)F)c(-c7cnn(CC(F)(F)F)c7)n6)CC5)c4)CC3)cc21 [Example 95, 1-(1-methyl-6-(1-(3-(((1r,4r)-4-((4-(1-(2,2,2-trifluoroethyl)-1H-pyrazol-4-yl)-5-(trifluoromethyl)pyrimidin-2-yl)-amino)-cyclohexyl)sulfonyl)phenethyl)piperidin-4-yl)-1H-indazol-3-yl)dihydro-pyrimidine-2,4(1H,3H)-dione] | 100 to 500 nM |
| Cn1nc(N2CCC(=O)NC2=O)c2ccc(N3CCC(CN4CCN(S(=O)(=O)N5CCC(Nc6ncc(C(F)(F)F)c(-c7cnn(CC(F)(F)F)c7)n6)CC5)CC4)CC3)cc21 [Example 97, 1-(1-methyl-6-(4-((4-((4-((4-(1-(2,2,2-trifluoroethyl)-1H-pyrazol-4-yl)-5-(trifluoromethyl)pyrimidin-2-yl)amino)-piperidin-1-yl)sulfonyl)piperazin-1-yl)-methyl)piperidin-1-yl)-1H-indazol-3-yl)dihydropyrimidine-2,4(1H,3H)-dione] | 100 to 500 nM |

Now from value to compound:

| IC50 | SMILES |
| --- | --- |
| < 100 nM | Cn1nc(N2CCC(=O)NC2=O)c2ccc(C3CCN(Cc4cccc(S(=O)(=O)N5CC[C@H](Nc6ncc(C(F)(F)F)c(-c7cnn(CC(F)F)c7)n6)[C@H](F)C5)c4)CC3)cc21 (racemic) [Example 37] |
| 100 to 500 nM | O=C1CCC(N2Cc3cc(N4CCC(CN5CCN(c6cccc(S(=O)(=O)N7CCC(Nc8ncc(C(F)(F)F)c(-c9cnn(CC(F)(F)F)c9)n8)CC7)c6)CC5)CC4)ccc3C2=O)C(=O)N1 (centres unmarked) [Example 45, 3-(1-oxo-5-(4-((4-(3-((4-((4-(1-(2,2,2-trifluoroethyl)-1H-pyrazol-4-yl)-5-(trifluoromethyl)pyrimidin-2-yl)-amino)-piperidin-1-yl)sulfonyl)-phenyl)piperazin-1-yl)methyl)-piperidin-1-yl)isoindolin-2-yl)-piperidine-2,6-dione] |
| 100 to 500 nM | O=C1CCN(C2CCN(Cc3cccc(S(=O)(=O)N4CCC(Nc5ncc(C(F)(F)F)c(-c6cnn(CC(F)(F)F)c6)n5)CC4)c3)CC2)C(=O)N1 [Example 46] |
| < 100 nM | O=C1CCC(Nc2ccc(N3CCN(Cc4cccc(S(=O)(=O)N5CCC(Nc6ncc(C(F)(F)F)c(-c7cnn(CC(F)(F)F)c7)n6)CC5)c4)CC3)cc2)C(=O)N1 (centres unmarked) [Example 53] |
| 100 to 500 nM | O=C1CCC(N2CCN(Cc3cccc(S(=O)(=O)N4CCC(Nc5ncc(C(F)(F)F)c(-c6cnn(CC(F)(F)F)c6)n5)CC4)c3)C3CC32)C(=O)N1 (centres unmarked) [Example 63, 3-(5-(3-((4-((4-(1-(2,2,2-trifluoro-ethyl)-1H-pyrazol-4-yl)-5-(trifluoromethyl)-pyrimidin-2-yl)amino)-piperidin-1-yl)-sulfonyl)benzyl)-2,5-diazabicyclo[4.1.0]-heptan-2-yl)-piperidine-2,6-dione] |
| 100 to 500 nM | O=C1CCN(c2ccc(N3CCN(Cc4cccc(S(=O)(=O)N5CCC(Nc6ncc(C(F)(F)F)c(-c7cnn(-c8ccccc8F)c7)n6)CC5)c4)CC3)cc2)C(=O)N1 [Example 71, 1-(4-(4-(3-((4-((4-(1-(2-fluorophenyl)-1H-pyrazol-4-yl)-5-(trifluoromethyl)-pyrimidin-2-yl)amino)piperidin-1-yl)sulfonyl)benzyl)piperazin-1-yl)-phenyl)dihydropyrimidine-2,4(1H,3H)-dione] |
| 100 to 500 nM | O=C1CCC(N2CCN(Cc3cccc(S(=O)(=O)N4CCC(Nc5ncc(C(F)(F)F)c(-c6cnn(CC(F)(F)F)c6)n5)CC4)c3)CC2)C(=O)N1 (centres unmarked) [Example 76, 3-(4-(3-((4-((4-(1-(2,2,2-trifluoro-ethyl)-1H-pyrazol-4-yl)-5-(trifluoromethyl)-pyrimidin-2-yl)amino)-piperidin-1-yl)-sulfonyl)benzyl)piperazin-1-yl)-piperidine-2,6-dione] |
| 100 to 500 nM | O=C1CCN(C2CCCN(Cc3cccc(S(=O)(=O)N4CCC(Nc5ncc(C(F)(F)F)c(-c6cnn(CC(F)(F)F)c6)n5)CC4)c3)C2)C(=O)N1 (centres unmarked) [Example 80, 1-(1-(3-((4-((4-(1-(2,2,2-trifluoro-ethyl)-1H-pyrazol-4-yl)-5-(trifluoromethyl)-pyrimidin-2-yl)amino)-piperidin-1-yl)sulfonyl)benzyl)-piperidin-3-yl)dihydropyrimidine-2,4(1H,3H)-dione] |
| 100 to 500 nM | Cn1nc(N2CCC(=O)NC2=O)c2ccc(N3CC4CCC(C3)N4Cc3cccc(S(=O)(=O)N4CC[C@H](Nc5ncc(C(F)(F)F)c(-c6cnn(CC(F)(F)F)c6)n5)[C@H](F)C4)c3)cc21 [Example 85, 1-(6-(8-(3-(((3R,4S)-3-fluoro-4-((4-(1-(2,2,2-trifluoroethyl)-1H-pyrazol-4-yl)-5-(trifluoromethyl)pyrimidin-2-yl)-amino)-piperidin-1-yl)sulfonyl)benzyl)-3,8-diazabicyclo[3.2.1]octan-3-yl)-1-methyl-1H-indazol-3-yl)dihydro-pyrimidine-2,4(1H,3H)-dione] |
| < 100 nM | Cn1nc(N2CCC(=O)NC2=O)c2ccc(C3CCN(CC(C)(C)Cc4cccc(S(=O)(=O)N5CCC(Nc6ncc(C(F)(F)F)c(-c7cnn(CC(F)(F)F)c7)n6)CC5)c4)CC3)cc21 [Example 98, 1-(6-(1-(2,2-dimethyl-3-(3-((4-((4-(1-(2,2,2-trifluoroethyl)-1H-pyrazol-4-yl)-5-(trifluoromethyl)pyrimidin-2-yl)amino)-piperidin-1-yl)sulfonyl)-phenyl)propyl)-piperidin-4-yl)-1-methyl-1H-indazol-3-yl)dihydro-pyrimidine-2,4(1H,3H)-dione] |
